Reference: the NIST ThermoML archive (doi:10.1021/je101178u)
Several values for one entry are separate records, joined by “and”; a condition that tells them apart may be missing. Equal entries are not always repeated.

Conditions: Fluid (supercritical or subcritical phases); for mass density: Buoyancy - hydrostatic balance with magnetic suspension - one sinker; for viscosity: vibrating wire

CCC [propane]
Conditions	mass density [kg/m3]	viscosity
273.15 K, 40.93 kPa	0.80164	0.00744 mPa·s
273.15 K, 51.05 kPa	1.002	0.007443 mPa·s
273.15 K, 100.76 kPa	1.999	0.007443 mPa·s
273.15 K, 149.62 kPa	3.0011	0.007435 mPa·s
273.15 K, 196.97 kPa	3.9945	0.007431 mPa·s
273.15 K, 243.87 kPa	5.0016	0.007424 mPa·s
273.15 K, 289.3 kPa	6.0007	0.007419 mPa·s
273.15 K, 333.56 kPa	6.9977	0.007415 mPa·s
273.15 K, 376.67 kPa	7.9933	0.00741 mPa·s
273.15 K, 420.03 kPa	9.0207	0.007406 mPa·s
273.15 K, 459.55 kPa	9.9815	0.007404 mPa·s
273.15 K, 459.58 kPa	9.9822	0.007403 mPa·s
298.15 K, 44.7 kPa	0.80087	0.008128 mPa·s
298.15 K, 55.55 kPa	0.99693	0.008133 mPa·s
298.15 K, 110.39 kPa	1.9989	0.00813 mPa·s
298.15 K, 164.09 kPa	2.9981	0.008127 mPa·s
298.15 K, 164.66 kPa	3.0089	0.008126 mPa·s
298.15 K, 217.05 kPa	4.0022	0.008127 mPa·s
298.15 K, 217.09 kPa	4.0029	0.008128 mPa·s
298.15 K, 268.78 kPa	5.0013	0.008125 mPa·s
298.15 K, 318.03 kPa	5.9708	0.008125 mPa·s
298.15 K, 369.4 kPa	7.0017	0.00813 mPa·s
298.15 K, 418.44 kPa	8.0059	0.008126 mPa·s
298.15 K, 464.73 kPa	8.9725	0.008128 mPa·s
298.15 K, 498.81 kPa	9.6967	0.008126 mPa·s
298.15 K, 513.59 kPa	10.014	0.008121 mPa·s
298.15 K, 559.93 kPa	11.023	0.008129 mPa·s
298.15 K, 600.75 kPa	11.93	0.008132 mPa·s
298.15 K, 604 kPa	12.003	0.008127 mPa·s
298.15 K, 646.36 kPa	12.965	0.008128 mPa·s and 0.00813 mPa·s
298.15 K, 691.04 kPa	14.002	0.008132 mPa·s
298.15 K, 692.19 kPa	14.029	0.008133 mPa·s
298.15 K, 783.49 kPa	16.228	0.008144 mPa·s
298.15 K, 849.03 kPa	17.879	0.00815 mPa·s
298.15 K, 875.16 kPa	18.556	0.008155 mPa·s
298.15 K, 878.68 kPa	18.648	0.008158 mPa·s
366.15 K, 68.97 kPa	1.0047	0.009907 mPa·s
366.15 K, 136.86 kPa	2.0051	0.009923 mPa·s
366.15 K, 270.35 kPa	4.0067	0.009941 mPa·s
366.15 K, 400.53 kPa	6.0046	0.009956 mPa·s
366.15 K, 527.04 kPa	7.9924	0.009974 mPa·s
366.15 K, 649.96 kPa	9.9702	0.009996 mPa·s
366.15 K, 772.49 kPa	11.99	0.01002 mPa·s
366.15 K, 897.82 kPa	14.109	0.01005 mPa·s
366.15 K, 1004.8 kPa	15.963	0.01007 mPa·s
366.15 K, 1119.8 kPa	18.006	0.0101 mPa·s
366.15 K, 1222.3 kPa	19.872	0.01013 mPa·s
366.15 K, 1738.7 kPa	30.044	0.01032 mPa·s
366.15 K, 2181.8 kPa	40.086	–
